Key:
GPR27-V2 [1] = target: T1, GPR27-V2 (Homo sapiens, UniProt P30518+Q9NS67); experiment: Agonist activity at CLuc-tagged human GPR27-V2 expressed in HEK293 cells incubated for 10 mins by beta-arrestin 2 recruitment based firefly luciferase complementation assay
GPR27-V2 [2] = target: T1, GPR27-V2; experiment: Agonist activity at CLuc-tagged human GPR27-V2 expressed in HEK293 cells incubated overnight by beta-arrestin 2 recruitment based firefly luciferase complementation assay
[3] = target: Probable G-protein coupled receptor 27 (Homo sapiens, UniProt Q9NS67); experiment: Agonist activity at CLuc-tagged human GPR27 expressed in HEK293 cells incubated for 10 mins by beta-arrestin 2 recruitment based firefly luciferase complementation assay
Chain of Probable G-protein coupled receptor 27 (Q9NS67 whole entry): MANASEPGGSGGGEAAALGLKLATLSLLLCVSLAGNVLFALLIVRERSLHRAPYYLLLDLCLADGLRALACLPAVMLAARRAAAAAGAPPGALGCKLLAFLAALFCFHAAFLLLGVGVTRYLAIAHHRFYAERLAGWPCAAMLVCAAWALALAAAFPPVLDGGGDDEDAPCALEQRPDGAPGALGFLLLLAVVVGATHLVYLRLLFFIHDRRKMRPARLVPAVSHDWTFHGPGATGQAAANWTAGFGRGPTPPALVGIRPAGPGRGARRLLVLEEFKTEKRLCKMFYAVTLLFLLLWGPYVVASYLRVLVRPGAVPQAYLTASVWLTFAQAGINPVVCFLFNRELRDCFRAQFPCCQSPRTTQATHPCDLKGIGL

T1 sequence (P30518 whole entry): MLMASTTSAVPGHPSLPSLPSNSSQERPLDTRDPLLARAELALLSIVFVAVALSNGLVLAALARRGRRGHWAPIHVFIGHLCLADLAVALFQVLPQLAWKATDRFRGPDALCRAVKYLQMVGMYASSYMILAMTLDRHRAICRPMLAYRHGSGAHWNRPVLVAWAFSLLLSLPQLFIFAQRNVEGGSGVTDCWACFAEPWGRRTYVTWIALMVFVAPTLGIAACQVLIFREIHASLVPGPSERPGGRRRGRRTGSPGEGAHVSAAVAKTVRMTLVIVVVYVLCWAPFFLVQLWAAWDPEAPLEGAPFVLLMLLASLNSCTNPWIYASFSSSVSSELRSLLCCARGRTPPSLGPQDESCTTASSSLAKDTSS
T1 sequence (Q9NS67 whole entry): as the sequence (Q9NS67 whole entry) above

Compound	EC50 (GPR27-V2 [1]) [µM]	EC50 (GPR27-V2 [2]) [µM]	EC50 [3] [µM]
Cc1cc(NS(=O)(=O)c2ccc(NC(=O)c3ccc(Cl)cc3Cl)cc2)no1	> 100	–	–
O=C(Nc1ccc(S(=O)(=O)Nc2cnc3ccccc3n2)cc1)c1ccc(Cl)cc1Cl	> 100	–	–
O=C(Nc1ccc(S(=O)(=O)Nc2nccs2)cc1)c1ccc(Cl)cc1Cl	–	0.661	–
O=C(Nc1ccc(S(=O)(=O)O)cc1)c1ccc(Cl)cc1Cl	> 100	–	–
CN(C)S(=O)(=O)c1ccc(NC(=O)c2ccc(Cl)cc2Cl)cc1	> 100	–	–
O=C(Nc1ccc(S(=O)(=O)Nc2ccccc2)cc1)c1ccc(F)cc1F	3.89	–	0.447
Cc1nnc(NS(=O)(=O)c2ccc(NC(=O)c3ccc(Cl)cc3Cl)cc2)s1	> 100	–	–
CC(=O)NS(=O)(=O)c1ccc(NC(=O)c2ccc(Cl)cc2Cl)cc1	> 100	–	–
O=C(Nc1ccc(S(=O)(=O)Nc2ccccc2)cc1)c1ccc(Br)cc1Br	3.24	–	1.23
CS(=O)(=O)c1ccc(NC(=O)c2ccc(Cl)cc2Cl)cc1	38	–	–
O=C(Nc1ccc(S(=O)(=O)Nc2ccccc2)cc1)c1ccc(C(F)(F)F)cc1C(F)(F)F	0.55	–	> 31.6
CNS(=O)(=O)c1ccc(NC(=O)c2ccc(Br)cc2Br)cc1	> 100	–	–
Cc1onc(NS(=O)(=O)c2ccc(NC(=O)c3ccc(Cl)cc3Cl)cc2)c1C	> 100	–	–
NS(=O)(=O)c1ccc(NC(=O)c2ccc(Br)cc2Br)cc1	> 100	–	–
O=C(Nc1ccc(S(=O)(=O)Nc2ccccc2)cc1)c1ccc(Cl)cc1OC(F)(F)F	0.195	–	> 31.6
O=C(Nc1ccc(S(=O)(=O)Nc2ccccc2)cc1)c1ccc(C(F)(F)F)cc1Br	6.92	–	0.245
COc1ccc(C(=O)Nc2ccc(S(=O)(=O)Nc3ccccc3)cc2)c(C)c1	> 100	–	> 31.6
O=C(/C=C/c1ccc(Cl)cc1Cl)Nc1ccc(S(=O)(=O)Nc2ccccc2)cc1	> 100	–	–

Results, then the compound that gave them:

EC50 (GPR27-V2 [1]) [µM]	EC50 (GPR27-V2 [2]) [µM]	EC50 [3] [µM]	Compound
7.41	0.417	6.61	O=C(Nc1ccc(S(=O)(=O)Nc2ccccc2)cc1)c1ccc(Cl)cc1Cl
–	–	> 31.6	Cc1cc(Cl)c(C(=O)Nc2ccc(S(=O)(=O)Nc3ccccc3)cc2)cc1F
3.89	–	6.76	O=C(Nc1ccc(S(=O)(=O)Nc2ccccc2)cc1)c1ccc(C(F)(F)F)cc1Cl
–	–	0.562	Cc1cc(Br)c(F)cc1C(=O)Nc1ccc(S(=O)(=O)Nc2ccccc2)cc1
–	–	> 31.6	N#Cc1cc(Cl)c(C(=O)Nc2ccc(S(=O)(=O)Nc3ccccc3)cc2)c(Cl)c1
–	–	0.263	Cc1cc(Cl)c(Cl)cc1C(=O)Nc1ccc(S(=O)(=O)Nc2ccccc2)cc1
0.977	–	0.204	COc1cc(Cl)ccc1C(=O)Nc1ccc(S(=O)(=O)Nc2ccccc2)cc1
–	–	0.589	O=C(Nc1ccc(S(=O)(=O)Nc2ccccc2)cc1)c1cc(Cl)c(Cl)cc1Cl
5.89	–	0.977	N#Cc1ccc(C(=O)Nc2ccc(S(=O)(=O)Nc3ccccc3)cc2)c(Cl)c1
–	–	0.372	Cc1cc(C(=O)Nc2ccc(S(=O)(=O)Nc3ccccc3)cc2)c(Cl)cc1Cl
–	–	0.955	O=C(Nc1ccc(S(=O)(=O)Nc2ccccc2)cc1)c1cc2ccccc2cc1Cl
8.13	–	> 31.6	COc1ccc(C(=O)Nc2ccc(S(=O)(=O)Nc3ccccc3)cc2)c(Cl)c1
–	–	> 31.6	O=C(Nc1ccc(S(=O)(=O)Nc2ccccc2)cc1)c1c(Cl)cc(Cl)cc1Cl
–	–	2.14	Cc1cc(C(=O)Nc2ccc(S(=O)(=O)Nc3ccccc3)cc2)c(F)cc1Br
–	–	0.631	O=C(Nc1ccc(S(=O)(=O)Nc2ccccc2)cc1)c1ccc(Cl)c(Cl)c1Cl
–	–	0.126	Cc1cc(C(=O)Nc2ccc(S(=O)(=O)Nc3ccccc3)cc2)c(C)cc1Br
–	–	0.275	Cc1cc(C(=O)Nc2ccc(S(=O)(=O)Nc3ccccc3)cc2)c(C)cc1Cl
–	–	0.38	O=C(Nc1ccc(S(=O)(=O)Nc2ccccc2)cc1)c1cc(F)c(Cl)cc1Cl
–	–	0.363	Cc1cc(Cl)c(C(=O)Nc2ccc(S(=O)(=O)Nc3ccccc3)cc2)cc1Cl

Source: ChEMBL document CHEMBL5375984, “Development of Ligands for the Super Conserved Orphan G Protein-Coupled Receptor GPR27 with Improved Efficacy and Potency” (J Med Chem, 2023)
